Assays:
[1] = pH studies of copolymer formulations; assay type: physicochemical; details: acidification
Description: Counteracting the oily nature of P123 could be achieved by incorporation of copolymer that is in solid form at room temperature. The use of 1% w/w F127 with 9% w/v P123 instead of 10% P123 (w/v) produced a thin film, which was more readily hydrated. […] This necessitates hydration of the solid drug-polymer with a very mild buffer to counteract acidification which occurs upon use of sterile packed distilled water as commonly practiced in clinical settings. Behavior of poloxamers is unaffected by pH, and the use of buffers would be entirely dependent on ionizable groups present on the drug substance.

[2] = Optimization of B-B3 incorporation in 10% w/v P123; assay type: physicochemical
Description: Using formulation methods described in Example 5, the aim was to incorporate 2 mg/ml of B-B3 into 10% w/v P123. It was shown by this method that the B-B3 can typically be incorporated at ˜1.8 mg/ml drug (based on absorbance readings and a molar extinction coefficient of 30425) 24 h post-hydration. This translates to approximately 10% drug loss. Unincorporated drug undergoes aggregation in aqueous solutions, and is characterized by the appearance of a 730 nm absorbance peak. Although the formulations can be made completely aggregate free by centrifugation or sterile filtration through 0.2 μm filters, this adds another step in the manufacturing process, which can be avoided by increasing the copolymer:drug ratio.

[3] = system: arthritis in the MRL/1pr mouse; experiment: Transcutaneous PDT of arthritis, ankle width; assay type: in vivo; details: 0.5 mg/kg i.v.
Description: Arthritis in the MRL/1pr mouse strain was enhanced by giving 2 intradermal injections (thoracic and inguinal sites) with 0.05 ml of complete Freunds adjuvant containing 10 mg/ml heat-inactivated M. tuberculosis. PDT was given on days 0, 10 and 20 following CFA treatment. PDT was carnied out as follows; 3 groups of MRL/1pr mice were injected intravenously with B-B3 at 0.5 mg/kg (copolymer or liposomal formulations), after which they were protected from light. The third group was injected with copolymer alone at an equivalent copolymer concentration to that found in the formulation. An hour later, they were exposed to light at 80 J/cm^2 for […] (8 mW/cm^2).
Ankle width measurements were taken every 5 days prior to PDT treatment.

[4] = Vesicle size of liposomal BPD-MA (conventional and lactose micro-thin film); assay type: physicochemical
Description: For the standard laboratory preparation the liposomal bilayer components of 20 mg BPD-MA, 65 mg egg phosphatidyl glycerol (EPG) and 94 mg dimyristoyl phosphatidylcholine (DMPC), are combined in a round bottom flask and dissolved in 10 ml methylene dichloride (CH2Cl2). […]. The solvent is removed using standard rotary evaporation (Rotavapor R-124 and Buchi B171 Vacobox pump) leaving a thin film of the bilayer components on the flask wall. Once the thin film is prepared, it is hydrated using 10 ml iso-osmolar lactose (10% w/v) to give a final concentration of 2 mg/ml BPD-MA. Size reduction is carried out by consecutive extrusions through 400 nm, 200 nm, and finally 100 nm pore polycarbonate membranes (5 times through each) under high pressure. […] The final product was lyophilized and can be reconstituted prior to use by addition of water.
10 mg BPD-MA was combined with 32.5 mg phosphatidyl glycerol (EPG) and 47 mg dimyristoyl phosphatidylcholine (DMPC), and dissolved in 5 ml CH2Cl2. 2.5 ml of this solution (containing 5 mg BPD-MA) was then added to […] lactose in a rotary evaporator flask. The solvent was removed under rotary evaporation at 50° C. The film deposited on the glass wall was hydrated by addition of 2.5 ml warm distilled water (60° C.) with swirling. The hydrated material was examined under the microscope. Size reduction was carried out by extrusion of the hydrated material through 400, 200 and 100 nm pore polycarbonate membranes (5× through each) as described in Example 20.
In this experiment the effect of replacing CH2Cl2 with ethanol as a solvent for the sugar proliposomal formulation of photosensitizer and phospholipids was examined. The experiment was carried out as described in Example 21 except with the following changes: 20 mg BPD-MA was combined with 65 mg EPG and 94 mg DMPC, and dissolved in a total volume of 20 ml ethanol with occasional warming in 50° C. water bath. Ethanol was removed under rotary evaporation at 50° C., leaving BPD-MA/lipid coated lactose crystals evenly deposited onto flask wall. Flask was removed from the temperature bath, and left under vacuum for 10 min. The contents of the flask were scraped and hydrated by addition of 10 ml distilled water (60° C.) with swirling. The hydrated material was examined under the microscope and the MLV diameter was measured using laser light scattering on a NICOMP™ 370 Submicron Particle Sizer. Extrusion was then carried out as described in Example 20.
The experimental procedure was carried out was as described in Example 22, with the exception of the following changes. The liposomal bilayer constituents, 32.5 mg of EPG and 47 mg of DMPC, were dissolved in 2 ml ethanol, instead of 20 ml. The solution was warmed to 50° C. in a water bath. This was followed by addition of 10 mg BPD-MA, and the total volume was made up to 4 ml to ensure complete dissolution (2.5 mg/ml final concentration). 0.5 g of lactose was added to the round bottom flask. The solvent was removed by rotary evaporation, and the flask removed from the water bath, and left under vacuum for 1.5 h. For hydration, 5 ml of pre-warmed distilled water (60° C.) was added to flask with swirling. Extrusion of the solution and sizing of the vesicles was carried out as described in Example 22.

[5] = liposomal formulation, light 80 J/cm^2

Row | SMILES | pH dependency of formulation stability [1] | Drug loss ([2]; 2 mg/ml added) | Drug incorporated ([2]; 2 mg/ml added, 24 h post-hydration) [mg/mL] | Drug incorporation ([2]; final drug concentration 1 mg/ml) | Control of inflammation (increase in ankle swelling) ([3]; copolymer formulation, light 80 J/cm^2 1 h later, PDT days 0, 10, 20) | Control of inflammation (ankle swelling), after day 25 [3, 5] | Control of inflammation (ankle swelling), earlier part of the study [3, 5] | Diameter of MLVs ([4]; hydration of conventional thin films) [μm] | Mean diameter of the MLVs ([4]; lactose micro-thin film from ethanol, 92.44% by volume) [nm] | Diameter of unilamellar vesicles after extrusion, smaller population ([4]; lactose micro-thin film, 20 ml ethanol, 23.17% by volume) [nm] | Diameter of unilamellar vesicles after extrusion, larger population ([4]; lactose micro-thin film, 20 ml ethanol, 76.83% by volume) [nm] | Mean diameter of unilamellar vesicles, smaller population ([4]; lactose micro-thin film, reduced ethanol volume, 29.49% by volume) [nm] | Mean diameter of unilamellar vesicles, larger population ([4]; lactose micro-thin film, reduced ethanol volume, 70.5% by volume) [nm]
1 | C=Cc1c(C)c2cc3nc(cc4[nH]c(cc5nc(cc1[nH]2)C1(C)C5=CC=C(C(=O)O)C1C(=O)OC)c(C)c4CCC(=O)OC)C(CCC(=O)OC)=C3C (stereo not shown) [B-B3] | detrimental to formulation stability | approximately 10% | ~1.8 | complete incorporation of all added drug | highly effective in controlling the inflammation | exacerbation of the inflammatory condition | better suppression of the inflammation compared to the controls |  |  |  |  |  | 
2 | C=Cc1c(C)c2cc3nc(cc4[nH]c(cc5nc(cc1[nH]2)C(C)=C5CCC(=O)O)c(CCC(=O)OC)c4C)[C@@]1(C)C3=CC=C(C(=O)OC)[C@H]1C(=O)OC [BPD-MA, benzoporphyrin derivative mono-acid-ring A, reference compound] |  |  |  |  |  |  |  | > 1 | 690 | 47.9 | 110.4 | 58.4 | 132.4

Source: US7282215B2, “Supports for photosensitizer formulations” (The University of British Columbia, priority 2000, dated 2007)
